Measurements taken from patent US20160045487A1, “COMPOSITIONS AND METHODS FOR TREATING NEUROPATHY” (CHILDEREN'S MEDICAL CENTER CORPORATION, priority 2013, published 2016).

What was measured:
[1] = tested on: wild type mice; test: Electron microscopy of sciatic nerve Remak bundles, wild type mice; format: in vivo, mouse; conditions: WT mice; XIB4035 cream 4 weeks
Protocol: As a first test, a cream containing XIB4035 (1.5 mM) was applied directly to the hind paws of GFAP-DN-erbB4 and wild type mice twice daily for a period of 4 weeks starting prior to symptom onset (P21). Mice of both genotypes were also treated with the base cream containing no drug for control. Mice were tested for responses to a noxious thermal stimulus prior to the initiation of treatment and every 7 days for the duration of the experiment.
The cream containing XIB4035 (1.5 mM, ZereneX Molecular Ltd., Manchester, UK) consisted of N-methyl-pyrrolidone (6.25%), isopropyl myristate (6.25%) and petroleum jelly (87.5%). Control cream had the same ingredients without XIB4035. Cream was applied twice daily to the hind paws of mice starting at P21 for a period of 4 weeks for prophylactic treatment of GFAP-DN-erbB4. Diabetic mice were treated twice daily for 8 weeks after streptozotocin (STZ) injection prior to onset of hyperglycemia and for another 8 weeks during neuropathy testing. Cream treatment in therapeutic studies using GFAP-DN-erbB4 mice was performed twice daily beginning after onset of SFN at P28 and either continued for 5 weeks (chronic treatment) or 1 week (acute treatment).
Tissue was prepared as in (Lacomis, supra). Briefly, mice were perfused intracardially with 2% paraformaldehyde, 2.5% gluteraldehyde and 0.03% picric acid in 0.1 M cacodylate buffer (pH 7.2). […]

[2] = tested on: GFAP-DN-erbB4 mice; test: IB4 staining of C-fiber terminals in lamina II of spinal cord dorsal horn; format: in vivo, mouse; conditions: cream P28-P35; n=6
Protocol: However, in the clinic, therapy would almost certainly begin after patients present with symptoms of SFN. Therefore, it was determined whether topical XIB4035 can act as a disease-modifying agent in the GFAP-DN-erbB4 neuropathy model starting after animals are clearly symptomatic (P28). […] While IB4 labeling in mutant mice was lower than wild types regardless of treatment, IB4 signal was clearly present in mutant mice treated with XIB4035 while absent in those treated with control cream (FIG. 3D; 83% of XIB4035 treated mice (n=6) with IB4+ lamina II terminals vs 0% (n=4) in control treated mice) (FIG. 3D).
Spinal cords were collected from mice anesthetized with 2.5% Avertin, immersion fixed in 4% paraformaldehyde in 0.1 M phosphate buffer (pH 7.4) for 2 hours at 4° C., and cryoprotected in 20% sucrose overnight at 4° C. Tissue was embedded in OCT, sectioned at 15 μm, and stained mounted on slides. Tissue was blocked for 30 minutes in 0.1M PB+0.3% Triton-X 100+10% normal goat serum and incubated with TrpV1 rabbit polyclonal antibody (AbCAM, 1:2000) and Alexa-488 conjugated isolectin-B4 overnight at 4° C. Sections were washed 3 times for 30 minutes in 0.1M PB+0.3% Triton-X 100+10% normal goat serum followed by incubation with goat anti-rabbit Alexa-594 (Invitrogen) 1:1000 for 1 hour at room temperature.
Spinal cord images were acquired using a Zeiss Axioscope microscope. […]

[3] = target: T1, RET (Homo sapiens, UniProt P07949+P56159); test: RET phosphorylation phospho-tyrosine Western blot in SH-SY5Y cells; format: cell-based
T1 construct: endogenous in cells; host or cells: SH-SY5Y (SH-SY5Y-THpGL3) human neuroblastoma cells
Description: One goal of these studies was to determine if XIB4035 could be used for treating SFN in humans. Using the Neuro2A (N2A) murine neuroblastoma cell line, Tokugawa et al. (supra) reported XIB4035 as a competitive agonist for the GDNF receptor GFRα1 that activates the RET receptor. Since populations of DRG sensory neurons express different GFRα receptors, thus making them preferentially responsive to the particular ligands, it was important to determine if XIB4035 was specific to GFRα1 or could act on other family members. Since PSPN has no effect on peripheral sensory neurons, the GFRα1, GFRα2, and GFRα3 receptors were the focus of these studies. The SH-SY5Y, a human neuroblastoma cell line expressing mRNA for GFRα1, GFRα2, and GFRα3, was used to perform two cell-based assays; immunoblots measuring RET phosphorylation and a luciferase reporter assay using the tyrosine hydroxylase (TH) promoter. For the latter two paradigms were used, either overnight treatment immediately followed by luciferase activity measurements or 10 minute treatments followed by washout and overnight incubation prior to measurements. GDNF and ARTN induced robust TH-luciferase activity in a dose dependent manner (FIG. 3E). Because the responses to GDNF and ARTN were more robust, these two factors were chosen for further analysis.
Since the original report argued that XIB4035 displaces GDNF binding to GFRα1 expressing cells (FIG. 2 in Tokugawa et al., Neurochem Int 42, 81-86 (2003).), potentially ARTN, on TH-luciferase activity and Ret phosphorylation. […] In this experiment, cells were treated with GDNF or ARTN with or without XIB4035 for 10 minutes and cell lysates were either collected immediately or treatment was washed out and replaced with growth media for 30, 60, or 120 minutes. […] Therefore, we tested cells expressing only one GFRα using either N2A cells (which express RET) transfected with GFRα1 or GFRα3 expression constructs, or B(E)2-C cells, which express only GFRα2 together with RET. […]

T1 sequence (P07949 29-1114): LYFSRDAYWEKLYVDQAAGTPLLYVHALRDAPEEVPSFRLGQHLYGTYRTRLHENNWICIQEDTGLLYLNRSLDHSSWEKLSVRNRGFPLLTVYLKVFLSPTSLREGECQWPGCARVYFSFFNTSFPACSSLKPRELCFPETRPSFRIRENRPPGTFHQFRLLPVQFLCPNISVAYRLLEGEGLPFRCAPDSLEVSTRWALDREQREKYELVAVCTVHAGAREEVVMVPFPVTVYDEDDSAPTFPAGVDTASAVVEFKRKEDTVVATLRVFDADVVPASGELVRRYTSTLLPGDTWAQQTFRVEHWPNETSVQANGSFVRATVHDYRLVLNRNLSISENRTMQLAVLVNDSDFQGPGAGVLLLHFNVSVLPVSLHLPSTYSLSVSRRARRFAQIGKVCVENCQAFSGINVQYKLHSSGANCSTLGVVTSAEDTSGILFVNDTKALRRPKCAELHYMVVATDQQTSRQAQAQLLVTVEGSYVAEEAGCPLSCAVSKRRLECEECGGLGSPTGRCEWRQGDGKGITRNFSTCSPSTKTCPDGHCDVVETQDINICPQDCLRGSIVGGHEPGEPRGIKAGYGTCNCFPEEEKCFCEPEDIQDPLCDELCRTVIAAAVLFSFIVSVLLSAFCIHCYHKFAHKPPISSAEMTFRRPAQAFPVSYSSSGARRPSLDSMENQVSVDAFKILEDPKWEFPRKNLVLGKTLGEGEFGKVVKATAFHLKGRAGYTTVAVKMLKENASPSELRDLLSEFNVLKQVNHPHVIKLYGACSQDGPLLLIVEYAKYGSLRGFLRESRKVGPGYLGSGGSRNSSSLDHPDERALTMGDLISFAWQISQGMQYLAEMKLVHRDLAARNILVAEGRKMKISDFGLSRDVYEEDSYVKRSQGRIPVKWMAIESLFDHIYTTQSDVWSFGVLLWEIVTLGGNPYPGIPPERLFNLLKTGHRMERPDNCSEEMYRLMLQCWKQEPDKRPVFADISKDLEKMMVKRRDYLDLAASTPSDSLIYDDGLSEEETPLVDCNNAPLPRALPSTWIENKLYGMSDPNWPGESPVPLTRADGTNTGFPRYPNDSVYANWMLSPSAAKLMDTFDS
T1 sequence (P56159 25-429 limits assumed): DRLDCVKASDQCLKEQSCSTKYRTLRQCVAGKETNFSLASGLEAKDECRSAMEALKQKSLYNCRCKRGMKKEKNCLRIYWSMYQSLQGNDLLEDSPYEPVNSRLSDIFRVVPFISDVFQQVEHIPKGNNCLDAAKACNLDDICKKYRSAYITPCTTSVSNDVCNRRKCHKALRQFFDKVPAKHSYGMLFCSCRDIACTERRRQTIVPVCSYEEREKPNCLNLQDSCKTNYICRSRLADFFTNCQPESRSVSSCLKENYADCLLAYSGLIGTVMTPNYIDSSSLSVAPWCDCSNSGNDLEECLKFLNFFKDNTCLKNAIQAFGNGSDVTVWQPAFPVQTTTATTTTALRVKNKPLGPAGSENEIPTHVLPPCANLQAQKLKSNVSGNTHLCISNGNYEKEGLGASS

CCN(CC)CCCC(C)Nc1cc(/C=C/c2ccccc2Cl)nc2cc(Cl)ccc12 (centres unmarked) [XIB4035, N4-{7-chloro-2-[(E)-2-(2-chloro-phenyl)-vinyl]-quinolin-4-yl}-N1,N1-diethyl-pentane-1,4-diamine]
c-fiber area [1]: 1.81 ± 0.06 µm² | c-fibers/Remak bundle [1]: 8.80 ± 0.52 | treated mice with IB4+ lamina II terminals [2]: 83% | duration of ligand-induced RET phosphorylation after washout ([3]; 20 μM XIB4035 with 2 nM GDNF or 1 nM ARTN, 10 minutes treatment): at least 120 minutes | induction of RET phosphorylation ([3]; XIB4035 alone, various concentrations, two or 10 minutes): failed to induce RET phosphorylation
